Consider four compounds from patent publication US20230129258A1, “HETEROTANDEM BICYCLIC PEPTIDE COMPLEXES” (BicycleTx Limited, priority 2019, published 2023).

Where two headings read alike, the source gives them in different places. Starred links: 1 amine or outer side, 2 acyl side, 3 side chain; linkers in the order of their positions; H or OH if unused. Positions of bridges follow the written chain, without caps; N, C: chain ends. Non-standard residues stand in square brackets, D forms with d. Chains are numbered I, II in the order given. X1 = O=C(CCOCCOCCOCCN(CCOCCOCCOCCn1cc(CCC(=O)[*:2])nn1)CCOCCOCCOCCn1cc(CCC(=O)[*:3])nn1)[*:1]; TATA = O=C(CC[*:1])N1CN(C(=O)CC[*:2])CN(C(=O)CC[*:3])C1; Dip = N[C@H](C(=O)O)C(c1ccccc1)c1ccccc1; Hyp = O=C(O)[C@@H]1C[C@@H](O)CN1; hArg = N=C(N)NCCCC[C@H](N)C(=O)O; tBuAla = CC(C)(C)C[C@H](N)C(=O)O; Nle = CCCC[C@H](N)C(=O)O

Holding throughout (format): cell-based
Data set [1] deals with T1, CD137 (Homo sapiens, UniProt Q07011). The data set can be described thus: CD137 reporter assay (Promega, Jurkat cells) in co-culture with EphA2-expressing tumor cells (A549, PC3, HT29). On the set-up: host or cells: Jurkat reporter cells. The method, boiled down:
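Promega CD137 luciferase reporter Jurkat cells co-cultured with tumor cells (RKO for PD-L1; A549, PC3, HT29 for EphA2) and serially diluted test articles in RPMI + 1% FBS, 6 h at 37° C. Bio-Glo luminescence as fold change over cells alone; log(agonist)-response fit gives EC50 (nM) and max fold induction.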

In the next data set the test system is human PBMCs. The data set can be described thus: Human PBMC co-culture cytokine secretion assay with EphA2-expressing tumor cells (MC38, HT-1080, HT29). To be noted: human PBMC-MC38 co-culture. The method, then: […] MC38 were cultured in Dulbecco's Modified Eagle Medium supplemented with 10% heat inactivated Fetal Bovine Serum (FBS), 1× Penicillin/Streptomycin, 10 mM HEPES, and 2 mM L-Glutamine (referred to as R10 medium). Frozen PBMCs from healthy human donors were thawed and washed once in room temperature PBS with benzonase, and then resuspended in RPMI supplemented with 10% heat inactivated Fetal Bovine Serum (FBS), 1× Penicillin/Streptomycin, 10 mM HEPES, and 2 mM L-Glutamine (herein referred to as R10 medium). 100 μl of PBMCs (1,000,000 PBMCs/ml) and 100 μl of tumor cells (100,000 tumor cells/ml) (Effector:Target cell ratio (E:T) 10:1) were plated in each well of a 96 well flat bottom plate for the co-culture assay. 100 ng/ml of soluble anti-CD3 mAb (clone OKT3) was added to the culture on day 0 to stimulate human PBMCs. Test, control compounds, or vehicle controls were diluted in R10 media and 50 μL was added to respective wells to bring the final volume per well to 250 μL. Plates were covered with a breathable film and incubated in a humidified chamber at 37° C. with 5% CO2 for two days. […] Briefly, the standards and samples were added to a black 96 well plate. Microparticle cocktail (provided in Luminex kit, R&D Systems) was added and shaken for 2 hours at room temperature. The plate was washed 3 times using a magnetic holder. Biotin cocktail was then added to the plate and shaken for 1 hour at RT. The plate was washed 3 times using a magnetic holder. Streptavidin cocktail was added to the plate and shaken for 30 minutes at RT. The plates were washed 3 times using a magnetic holder, resuspended in 100 μL of wash buffer, shaken for 2 minutes at RT, and read using the Luminex 2000. Raw data were analyzed using built-in Luminex software to generate standard curves and interpolate protein concentrations, all other data analyses and graphing were performed using Excel and Prism software. Data represents one study with three independent donor PBMCs tested in experimental duplicates.
Similarly, PBMCs from healthy donors were co-cultured with EphA2 expressing cancer cells (MC38 and HT-1080) at a ratio of 5:1 in presence of anti-CD3 and BCY13272. […]

Data set [2] has as its target T1, CD137. Put plainly: CD137 reporter assay (Promega CD137 luciferase reporter, Jurkat cells) in co-culture with Nectin-4-expressing tumor cells. On the set-up: host or cells: Jurkat reporter cells. (Reporter assays use an easily measured gene product as a stand-in for the process of interest.)
[3] abbreviates: EC50 (nM), co-culture with HT1376, Table 2A.
[4] abbreviates: co-culture with HT1376, Table 2A.

T1 sequence (Q07011 24-255): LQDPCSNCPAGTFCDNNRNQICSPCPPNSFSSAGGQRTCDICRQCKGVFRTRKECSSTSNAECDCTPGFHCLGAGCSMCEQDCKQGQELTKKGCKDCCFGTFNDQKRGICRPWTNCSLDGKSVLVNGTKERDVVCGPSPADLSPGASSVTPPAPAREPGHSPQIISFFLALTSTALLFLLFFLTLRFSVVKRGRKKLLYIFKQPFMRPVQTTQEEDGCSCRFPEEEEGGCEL

With “I: A[hArg]DC[Hyp]LVNPLCL[Dip]P[dD]WTC-NH2 / II: Ac-C[tBuAla]PE[dK]PYCFADPY[Nle]CA-NH2 / III: Ac-C[tBuAla]PE[dK]PYCFADPY[Nle]CA-NH2 (linker I:4-I:11-I:18, II:1-II:8-II:15, III:1-III:8-III:15 via TATA; linker I:N-II:5-III:5 via X1) [BCY13047]”, the “Emax (fold induction over background)” value on CD137 [1] (CD137 reporter coculture assay with PC3 tumor cells) is 46.43. In addition, the EC50 at CD137 [1] (EC50, CD137 reporter coculture assay with PC3 tumor cells) is 0.07 nM; in the data set with human PBMCs (Donor 1, 48 h incubation, read-out: Donor 1 EC50 of IFNγ secretion), 0.31 nM; in the data set on human PBMCs (Donor 2, 48 h incubation, read-out: Donor 2 EC50 of IFNγ secretion), 0.3 nM.
`CCCC[C@@H]1NC(=O)[C@H](Cc2ccc(O)cc2)NC(=O)[C@@H]2CCCN2C(=O)[C@H](CC(=O)O)NC(=O)[C@H](C)NC(=O)[C@H](Cc2ccccc2)NC(=O)[C@@H]2CSCCC(=O)N3CN(CN(C3)C(=O)CCSC[C@@H](C(=O)N[C@@H](CNC(=O)CCc3cn(CCOCCOCCOCCOCCOCCOCCOCCOCCOCCOCCNC(=O)c4cc(C(=O)NCCOCCOCCOCCOCCOCCOCCOCCOCCOCCOCCn5cc(CCC(=O)NC[C@H](NC(=O)[C@@H]6CSCCC(=O)N7CN8CN(C7)C(=O)CCSC[C@H](NC(=O)[C@H](Cc7ccc(O)cc7)NC(=O)[C@@H]7CCCN7C(=O)[C@@H](C)NC(=O)[C@H](CCC(=O)O)NC(=O)[C@@H]7CCCN7C(=O)[C@H](CC(C)(C)C)NC(=O)[C@@H](NC(C)=O)CSCCC8=O)C(=O)N[C@@H](Cc7ccccc7)C(=O)N[C@@H](C)C(=O)N[C@@H](CC(=O)O)C(=O)N7CCC[C@H]7C(=O)N[C@@H](Cc7ccc(O)cc7)C(=O)N[C@@H](CCCC)C(=O)N6)C(N)=O)nn5)cc(C(=O)NCCOCCOCCOCCOCCOCCOCCOCCOCCOCCOCCn5cc(CCC(=O)N[C@H]6CSCCC(=O)N7CN8CN(C7)C(=O)CCSC[C@H](NC(=O)[C@@H](CC(=O)O)NC(=O)[C@H](Cc7cccc9ccccc79)NC(=O)[C@@H]7CCCN7C6=O)C(=O)N[C@@H](CCSC)C(=O)N[C@@H](CCCCNC(=N)N)C(=O)N[C@@H](CC(=O)O)C(=O)N[C@@H](Cc6c[nH]c7ccccc67)C(=O)N[C@@H](CO)C(=O)N[C@@H]([C@@H](C)O)C(=O)N6CCC[C@H]6C(=O)N6C[C@H](O)C[C@H]6C(=O)N[C@@H](Cc6c[nH]c7ccccc67)C(=O)N[C@H](C(N)=O)CSCCC8=O)nn5)c4)nn3)C(N)=O)NC1=O)C(=O)CCSC[C@H](NC(C)=O)C(=O)N[C@@H](CC(C)(C)C)C(=O)N1CCC[C@H]1C(=O)N[C@@H](CCC(=O)O)C(=O)N[C@H](C)C(=O)N1CCC[C@H]1C(=O)N[C@@H](Cc1ccc(O)cc1)C(=O)N2` [BCY10919]: the EC50 on CD137 [2] (setting [3]) is 0.19 nM. The Emax on CD137 [2] (setting [4]) is on record as 62 fold induction over background.
`CCCC[C@@H]1NC(=O)[C@H](Cc2ccc(O)cc2)NC(=O)[C@@H]2CCCN2C(=O)[C@H](CC(=O)O)NC(=O)[C@H](C)NC(=O)[C@H](Cc2ccccc2)NC(=O)[C@@H]2CSCCC(=O)N3CN(CN(C3)C(=O)CCSC[C@@H](C(=O)N[C@@H](C)C(N)=O)NC1=O)C(=O)CCSC[C@H](NC(C)=O)C(=O)N[C@@H](CC(C)(C)C)C(=O)N1CCC[C@H]1C(=O)N[C@@H](CCC(=O)O)C(=O)N[C@H](CCCCNC(=O)CCc1cn(CCOCCOCCOCCOCCOCCOCCOCCOCCOCCOCCNC(=O)CCOCCN(CCOCCC(=O)NCCOCCOCCOCCOCCOCCOCCOCCOCCOCCOCCn3cc(CCC(=O)NCCCC[C@H]4NC(=O)[C@H](CCC(=O)O)NC(=O)[C@@H]5CCCN5C(=O)[C@H](CC(C)(C)C)NC(=O)[C@@H](NC(C)=O)CSCCC(=O)N5CN6CN(C5)C(=O)CCSC[C@H](NC(=O)[C@H](Cc5ccc(O)cc5)NC(=O)[C@@H]5CCCN5C4=O)C(=O)N[C@@H](Cc4ccccc4)C(=O)N[C@@H](C)C(=O)N[C@@H](CC(=O)O)C(=O)N4CCC[C@H]4C(=O)N[C@@H](Cc4ccc(O)cc4)C(=O)N[C@@H](CCCC)C(=O)N[C@H](C(=O)N[C@@H](C)C(N)=O)CSCCC6=O)nn3)CCOCCC(=O)NCCOCCOCCOCCOCCOCCOCCOCCOCCOCCOCCn3cc(CCC(=O)N[C@H]4CSCCC(=O)N5CN6CN(C5)C(=O)CCSC[C@H](NC(=O)[C@@H](CC(=O)O)NC(=O)[C@H](Cc5cccc7ccccc57)NC(=O)[C@@H]5CCCN5C4=O)C(=O)N[C@@H](CCSC)C(=O)N[C@@H](CCCCNC(=N)N)C(=O)N[C@@H](CC(=O)O)C(=O)N[C@@H](Cc4c[nH]c5ccccc45)C(=O)N[C@@H](CO)C(=O)N[C@@H]([C@@H](C)O)C(=O)N4CCC[C@H]4C(=O)N4C[C@H](O)C[C@H]4C(=O)N[C@@H](Cc4c[nH]c5ccccc45)C(=O)N[C@H](C(N)=O)CSCCC6=O)nn3)nn1)C(=O)N1CCC[C@H]1C(=O)N[C@@H](Cc1ccc(O)cc1)C(=O)N2` [BCY11027]: the midpoint of the response on CD137 [2] (setting [3]), the EC50, lay at 0.18 nM.
Take `CCCC[C@@H]1NC(=O)[C@H](Cc2ccc(O)cc2)NC(=O)[C@@H]2CCCN2C(=O)[C@H](CC(=O)O)NC(=O)[C@H](C)NC(=O)[C@H](Cc2ccccc2)NC(=O)[C@@H]2CSCCC(=O)N3CN(CN(C3)C(=O)CCSC[C@@H](C(=O)N[C@@H](C)C(N)=O)NC1=O)C(=O)CCSC[C@H](NC(C)=O)C(=O)N[C@@H](CC(C)(C)C)C(=O)N1CCC[C@H]1C(=O)N[C@@H](CCC(=O)O)C(=O)N[C@H](CCCCNC(=O)CCc1cn(CCOCCOCCOCCOCCOCCOCCOCCOCCOCCOCCNC(=O)CCOCC(COCCC(=O)NCCOCCOCCOCCOCCOCCOCCOCCOCCOCCOCCn3cc(CCC(=O)NCCCC[C@H]4NC(=O)[C@H](CCC(=O)O)NC(=O)[C@@H]5CCCN5C(=O)[C@H](CC(C)(C)C)NC(=O)[C@@H](NC(C)=O)CSCCC(=O)N5CN6CN(C5)C(=O)CCSC[C@H](NC(=O)[C@H](Cc5ccc(O)cc5)NC(=O)[C@@H]5CCCN5C4=O)C(=O)N[C@@H](Cc4ccccc4)C(=O)N[C@@H](C)C(=O)N[C@@H](CC(=O)O)C(=O)N4CCC[C@H]4C(=O)N[C@@H](Cc4ccc(O)cc4)C(=O)N[C@@H](CCCC)C(=O)N[C@H](C(=O)N[C@@H](C)C(N)=O)CSCCC6=O)nn3)(COCCC(=O)NCCOCCOCCOCCOCCOCCOCCOCCOCCOCCOCCn3cc(CCC(=O)NCCCC[C@H]4NC(=O)[C@H](CCC(=O)O)NC(=O)[C@@H]5CCCN5C(=O)[C@H](CC(C)(C)C)NC(=O)[C@@H](NC(C)=O)CSCCC(=O)N5CN6CN(C5)C(=O)CCSC[C@H](NC(=O)[C@H](Cc5ccc(O)cc5)NC(=O)[C@@H]5CCCN5C4=O)C(=O)N[C@@H](Cc4ccccc4)C(=O)N[C@@H](C)C(=O)N[C@@H](CC(=O)O)C(=O)N4CCC[C@H]4C(=O)N[C@@H](Cc4ccc(O)cc4)C(=O)N[C@@H](CCCC)C(=O)N[C@H](C(=O)N[C@@H](C)C(N)=O)CSCCC6=O)nn3)COCCC(=O)NCCOCCOCCOCCOCCOCCOCCOCCOCCOCCOCCn3cc(CCC(=O)NCCC(=O)N[C@H]4CSCCC(=O)N5CN6CN(C5)C(=O)CCSC[C@H](NC(=O)[C@@H](CC(=O)O)NC(=O)[C@H](Cc5cccc7ccccc57)NC(=O)[C@@H]5CCCN5C4=O)C(=O)N[C@@H](CCSC)C(=O)N[C@@H](CCCCNC(=N)N)C(=O)N[C@@H](CC(=O)O)C(=O)N[C@@H](Cc4c[nH]c5ccccc45)C(=O)N[C@@H](CO)C(=O)N[C@@H]([C@@H](C)O)C(=O)N4CCC[C@H]4C(=O)N4C[C@H](O)C[C@H]4C(=O)N[C@@H](Cc4c[nH]c5ccccc45)C(=O)N[C@H](C(N)=O)CSCCC6=O)nn3)nn1)C(=O)N1CCC[C@H]1C(=O)N[C@@H](Cc1ccc(O)cc1)C(=O)N2` [BCY11022]: the EC50 on CD137 [2] turned out to be 0.2 nM. In addition, the Emax at CD137 [2] (setting [4]) is on record as 66 fold induction over background.

By EC50 is commonly meant the midpoint of the concentration-response curve.
